Reference: publication PMC4433810 (European journal of medicinal chemistry, 2015)

Tests used:
[1] = test system: FR (−) lung cancer cell line A549; assay: Cell viability; type: cell-based
[2] = test system: tubulin acetylation (marker of HDAC6 activity) in KB cells; assay: Western blot analysis of tubulin acetylation in KB cells; type: cell-based; conditions: 4 h, at IC50 doses and above
[3] = test system: histone H4 acetylation (intracellular marker of HDAC1 inhibition) in KB cells; assay: Western blot analysis of histone H4 acetylation in KB cells; type: cell-based; conditions: 24 h
[4] = test system: KB cells; assay: Folic acid; type: cell-based; conditions: 25 μM of 11e, absence vs presence of folic acid (250 μM); p < 0.01
[5] = molecular target: HDAC1 (Homo sapiens, UniProt Q13547); assay: SAMDI mass spectrometry HDAC activity assay, HDAC1; type: biochemical
HDAC1, sequence (Q13547 whole entry): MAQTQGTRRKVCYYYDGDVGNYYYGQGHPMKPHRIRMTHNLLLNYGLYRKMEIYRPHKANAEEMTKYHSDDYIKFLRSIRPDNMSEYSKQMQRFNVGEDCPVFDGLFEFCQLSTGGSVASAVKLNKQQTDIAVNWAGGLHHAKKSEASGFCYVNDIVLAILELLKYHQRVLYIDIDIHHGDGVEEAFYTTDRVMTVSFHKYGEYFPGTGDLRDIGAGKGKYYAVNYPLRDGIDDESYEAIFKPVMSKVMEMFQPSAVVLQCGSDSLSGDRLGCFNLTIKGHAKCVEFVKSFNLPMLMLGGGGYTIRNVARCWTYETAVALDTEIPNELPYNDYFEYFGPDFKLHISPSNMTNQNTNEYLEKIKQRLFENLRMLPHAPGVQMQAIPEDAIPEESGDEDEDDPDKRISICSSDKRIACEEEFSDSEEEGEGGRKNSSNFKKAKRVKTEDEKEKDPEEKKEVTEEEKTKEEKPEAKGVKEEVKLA

[6] = molecular target: T1, HDAC6 (Homo sapiens, UniProt Q9UBN7); assay: SAMDI mass spectrometry HDAC activity assay, HDAC6; type: biochemical
T1 sequence (Q9UBN7 1-1215): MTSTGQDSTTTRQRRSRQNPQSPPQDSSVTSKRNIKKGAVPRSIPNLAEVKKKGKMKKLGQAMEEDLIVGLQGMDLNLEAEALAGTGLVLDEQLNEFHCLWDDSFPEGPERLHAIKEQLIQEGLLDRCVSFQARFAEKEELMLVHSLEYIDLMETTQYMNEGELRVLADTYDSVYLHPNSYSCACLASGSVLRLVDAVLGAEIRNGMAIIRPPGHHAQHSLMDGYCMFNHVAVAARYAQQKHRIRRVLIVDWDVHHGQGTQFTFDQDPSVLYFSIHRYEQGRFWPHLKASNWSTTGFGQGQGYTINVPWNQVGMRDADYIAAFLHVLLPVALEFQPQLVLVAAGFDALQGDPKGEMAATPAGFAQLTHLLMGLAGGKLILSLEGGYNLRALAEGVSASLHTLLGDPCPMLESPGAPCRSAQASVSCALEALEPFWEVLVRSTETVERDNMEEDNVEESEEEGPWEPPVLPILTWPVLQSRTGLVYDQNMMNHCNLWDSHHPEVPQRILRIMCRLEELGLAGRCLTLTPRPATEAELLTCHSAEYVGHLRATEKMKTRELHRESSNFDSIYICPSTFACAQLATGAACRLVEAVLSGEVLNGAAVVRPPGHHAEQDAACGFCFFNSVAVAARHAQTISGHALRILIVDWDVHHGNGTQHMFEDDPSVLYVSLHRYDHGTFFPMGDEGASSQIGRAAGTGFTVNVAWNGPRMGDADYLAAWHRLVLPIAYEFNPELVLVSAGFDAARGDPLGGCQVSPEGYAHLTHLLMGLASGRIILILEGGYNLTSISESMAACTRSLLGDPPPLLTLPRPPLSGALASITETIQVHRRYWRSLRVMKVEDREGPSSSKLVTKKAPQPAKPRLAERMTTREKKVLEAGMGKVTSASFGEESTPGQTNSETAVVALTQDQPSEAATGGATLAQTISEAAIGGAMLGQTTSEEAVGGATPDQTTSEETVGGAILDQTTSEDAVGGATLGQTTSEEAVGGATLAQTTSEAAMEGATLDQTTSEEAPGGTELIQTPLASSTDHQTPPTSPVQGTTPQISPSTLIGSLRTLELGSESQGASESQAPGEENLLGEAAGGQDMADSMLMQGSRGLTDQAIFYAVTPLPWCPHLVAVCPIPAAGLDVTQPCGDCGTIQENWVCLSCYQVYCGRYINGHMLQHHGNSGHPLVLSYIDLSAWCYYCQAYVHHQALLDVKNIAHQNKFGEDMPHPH

[7] = molecular target: T2, HDAC8 (Homo sapiens, UniProt Q9BY41); assay: SAMDI mass spectrometry HDAC activity assay, HDAC8; type: biochemical
T2 sequence (Q9BY41 1-377): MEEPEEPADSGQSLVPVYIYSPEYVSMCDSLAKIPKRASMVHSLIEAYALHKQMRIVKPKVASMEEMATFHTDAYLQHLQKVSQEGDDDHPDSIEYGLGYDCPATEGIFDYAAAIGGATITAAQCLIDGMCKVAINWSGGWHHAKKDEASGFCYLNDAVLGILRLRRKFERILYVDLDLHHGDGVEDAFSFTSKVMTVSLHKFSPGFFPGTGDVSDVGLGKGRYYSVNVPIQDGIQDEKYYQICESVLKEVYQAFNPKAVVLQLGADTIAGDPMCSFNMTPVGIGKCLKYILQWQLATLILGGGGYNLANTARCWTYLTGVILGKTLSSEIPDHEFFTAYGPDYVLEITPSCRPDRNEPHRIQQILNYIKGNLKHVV

[8] = test system: KB (oral carcinoma) cells, FR (+); assay: Cell viability; type: cell-based; conditions: up to 100 μM
[9] = test system: HeLa (cervical carcinoma) cells, FR (+); assay: Cell viability; type: cell-based; conditions: up to 100 μM
[10] = SAHA 2 and 20μM, 11d 50 and 100μM, 11e 30 and 100μM

SMILES | Activity against A549 cells, in words [1] | Acetylated tubulin levels [2] | Histone H4 acetylation [3, 10] | further results
Nc1nc2ncc(CNc3ccc(C(=O)NCCCCCCC(=O)NO)cc3)nc2c(=O)[nH]1 [11d, 4-(((2-Amino-4-oxo-3,4-dihydropteridin-6-yl)methyl)amino)-N-(7-(hydroxyamino)-7-oxoheptyl)benzamide] | inactive | increase in acetylated tubulin levels | dose dependent increases in histone H4 acetylation | –
Nc1nc2ncc(CNc3ccc(C(=O)NCCCCCCCC(=O)NO)cc3)nc2c(=O)[nH]1 [11e, 4-(((2-Amino-4-oxo-3,4-dihydropteridin-6-yl)methyl)amino)-N-(8-(hydroxyamino)-8-oxooctyl)benzamide] | inactive | increase in acetylated tubulin levels | dose dependent increases in histone H4 acetylation | Effect of folic acid on cytotoxicity (viability of KB cells) [4]: reduced the cytotoxicity
O=C(CCCCCCC(=O)Nc1ccccc1)NO [SAHA, reference compound] | – | increase in acetylated tubulin levels | dose dependent increases in histone H4 acetylation | –
CN1CCc2c(c3ccccc3n2Cc2ccc(C(=O)NO)cc2)C1 [Tubastatin A, reference compound] | – | – | – | Histone H4 acetylation ([3]; 14 μM): significant increase in H4 acetylation
Nc1nc2ncc(CNc3ccc(C(=O)N[C@@H](CCC(=O)NO)C(=O)O)cc3)nc2c(=O)[nH]1 [compound 6, 2-(4-(((2-Amino-4-oxo-3,4-dihydropteridin-6-yl)methyl)amino)benzamido)-5-(hydroxyamino)-5-oxopentanoic acid] | – | – | – | HDAC1 inhibition, in words [5]: inactive; HDAC6 inhibition, in words [6]: inactive; HDAC8 inhibition, in words [7]: inactive
Nc1nc2ncc(CNc3ccc(C(=O)NO)cc3)nc2c(=O)[nH]1 [compound 7, 4-(((2-Amino-4-oxo-3,4-dihydropteridin-6-yl)methyl)amino)-N-hydroxybenzamide] | – | – | – | Cytotoxicity to KB cells, in words [8]: not cytotoxic; Histone H4 acetylation ([3]; 100 μM, relative to the control): little effect on H4 acetylation; Cytotoxicity to HeLa cells, in words [9]: not cytotoxic
